Measured values taken from patent publication US12685716B1 (priority 2022, dated 2026).

Test system: subject with AF/AFL
Test: Initiation of IV sotalol followed by first oral dose and same-day discharge (case Examples 1-12)
Assay type: in vivo, human
Protocol: • 1. After admission, obtain baseline parameters including QTc interval, HR, BP. • 2. […] Monitor QTc interval, HR, BP every 15 minutes during infusion. • 4. Administer first oral dose at the appropriate time based on renal function. For CrCl≥60 mL/min, oral administration time is planned 4 hours following the completion of IV infusion. For CrCl=30-59 mL/min, oral administration time is planned 6 hours following the completion of IV infusion. • 5. Obtain monitoring parameters including QTc interval, HR, BP at about 2 hours after oral administration. • 6. […] At arrival, baseline labs were obtained, and the subject was placed on continuous electrocardiogra monitoring. […] At arrival, baseline labs were obtained, and the subject was placed on continuous electrocardiography monitoring. […] At arrival, baseline labs were obtained, and the subject was placed on continuous electrocardiography monitoring. […] At arrival, baseline labs were obtained, and the subject was placed on continuous electrocardiography monitoring. […] At arrival, baseline labs were obtained, and the subject was placed on continuous electrocardiography monitoring. […] At arrival, baseline labs were obtained, and the subject was placed on continuous electrocardiography monitoring. […] At arrival, baseline labs were obtained, and the subject was placed on continuous electrocardiography monitoring. […] At arrival, baseline labs were obtained, and the subject was placed on continuous electrocardiography monitoring. […] At arrival, baseline labs were obtained, and the subject was placed on continuous electrocardiography monitoring. […] At arrival, baseline labs were obtained, and the subject was placed on continuous electrocardiography monitoring. […] At arrival, baseline labs were obtained, and the subject was placed on continuous electrocardiography monitoring. […] At arrival, baseline labs were obtained, and the subject was placed on continuous electrocardiography monitoring.

[1] = Example 1: IV 82.5 mg, DCCV, PO 80 mg 4 h after IV completion
[2] = Example 2: IV 82.5 mg, PO 80 mg 4 h after IV completion
[3] = Example 3: IV 75 mg, DCCV, PO 80 mg 5.5 h after IV completion
[4] = Example 4: IV 75 mg, DCCV, PO 80 mg 6.5 h after IV completion
[5] = Example 5: IV 75 mg, DCCV, PO 80 mg 5 h after IV completion
[6] = Example 6: IV 75 mg, DCCV, PO 80 mg 5.5 h after IV completion
[7] = Example 7: IV 60 mg, PO 120 mg 5 h after IV completion, second DCCV
[8] = Example 8: IV 82.5 mg, DCCV, PO 80 mg 4 h after IV completion
[9] = Example 9: IV 90 mg, DCCV, PO 120 mg 3.5 h after IV completion
[10] = Example 10: IV 75 mg, DCCV, PO 80 mg 6 h after IV completion
[11] = Example 11: IV 75 mg, DCCV, PO 80 mg 6 h after IV completion
[12] = Example 12: IV 75 mg, DCCV, PO 80 mg 6 h after IV completion

CC(C)NCC(O)c1ccc(NS(C)(=O)=O)cc1 (stereo not shown) [sotalol, d,1-sotalol]
Monitoring parameters (QTc, HR, BP) two hours after oral administration [1]: within normal limits
Rhythm two hours after oral administration [1]: remained in NSR
Rhythm conversion after IV sotalol infusion (Example 1: person, persistent AF/AFL, IV 82.5 mg over 1 h, then DCCV): converted from AF to NSR
Monitoring parameters (QTc, HR, BP) two hours after oral administration [2]: within normal limits
Rhythm two hours after oral administration [2]: remained in NSR
Rhythm conversion after IV sotalol infusion (Example 2: person, paroxysmal AF and PVCs, IV 82.5 mg over 1 h, no DCCV): converted from AF to NSR
Monitoring parameters including QTc two hours after oral administration [3]: within normal limits
Rhythm two hours after oral administration [3]: remained in NSR
Rhythm conversion after IV sotalol infusion (Example 3: person, persistent AF, CrCl 30 mL/min, IV 75 mg over 1 h, then DCCV): converted from AF to NSR
Monitoring parameters including QTc two hours after oral administration [4]: within normal limits
Rhythm two hours after oral administration [4]: remained in NSR
Rhythm conversion after IV sotalol infusion (Example 4: person, persistent AF, CrCl 38 mL/min, IV 75 mg over 1 h, then DCCV): converted from AF to NSR
Monitoring parameters including QTc two hours after oral administration [5]: within normal limits
Rhythm two hours after oral administration [5]: remained in NSR
Rhythm conversion after IV sotalol infusion (Example 5: person, persistent AF, CrCl 37 mL/min, IV 75 mg over 1 h, then DCCV): converted from AF to NSR
Monitoring parameters including QTc two hours after oral administration [6]: within normal limits
Rhythm two hours after oral administration [6]: remained in NSR
Rhythm conversion after IV sotalol infusion (Example 6: person, PVCs and paroxysmal AF, CrCl 41 mL/min, IV 75 mg over 1 h, then DCCV): converting the subject from AF to NSR
Monitoring parameters (QTc, HR, BP) two hours after oral administration [7]: within normal limits
Rhythm two hours after oral administration [7]: remained in NSR
Rhythm conversion after first oral dose and second DCCV (Example 7: IV 60 mg, PO 120 mg 5 h after IV completion, then second DCCV): converted from AF to NSR
Rhythm conversion after IV sotalol infusion and first DCCV attempt (Example 7: person, persistent AF, IV 60 mg over 1 h, then first DCCV): failed to convert
Monitoring parameters (QTc, HR, BP) two hours after oral administration [8]: within normal limits
Rhythm two hours after oral administration [8]: remained in NSR
Rhythm conversion after IV sotalol infusion (Example 8: person, persistent AF, IV 82.5 mg over 1 h, then DCCV): converted from AF to NSR
Monitoring parameters (QTc, HR, BP) two hours after oral administration [9]: within normal limits
Rhythm two hours after oral administration [9]: remained in NSR
Rhythm conversion after IV sotalol infusion (Example 9: person, persistent AF, IV 90 mg over 1 h, then DCCV): converting the subject from AF to NSR
Monitoring parameters (QTc, HR, BP) two hours after oral administration [10]: within normal limits
Rhythm two hours after oral administration [10]: remained in NSR
Rhythm conversion after IV sotalol infusion (Example 10: person, persistent AF, CrCl 56 mL/min, IV 75 mg over 1 h, then DCCV): converted from AF to NSR
Monitoring parameters (QTc, HR, BP) two hours after oral administration [11]: within normal limits
Rhythm two hours after oral administration [11]: remained in NSR
Rhythm conversion after IV sotalol infusion (Example 11: person, persistent AF, CrCl 50 mL/min, IV 75 mg over 1 h, then DCCV): converted from AF to NSR
Monitoring parameters (QTc, HR, BP) two hours after oral administration [12]: within normal limits
Rhythm two hours after oral administration [12]: remained in NSR
Rhythm conversion after IV sotalol infusion (Example 12: person, PVCs and persistent AF, CrCl 53 mL/min, IV 75 mg over 1 h, then DCCV): converted from AF to NSR
